Measurements published in patent US10383865B2, “Pharmaceutical combination composition comprising complex formulations of Ivacaftor and Lumacaftor and their salts and derivatives, process for their preparation thereof and pharmaceutical compositions containing them” (Druggability Technologies IP Holdco Limited, priority 2016, dated 2019).
Values joined by “and” are separate entries in the source; they are usually repeats but may differ in a detail not shown here. Equal entries are not always repeated. Where two headings read alike, the source gives them in different places.

How the values were obtained:
[1] = cited from earlier work
[2] = cited from earlier work; for share of the total dose eliminated as this metabolite: oral administration of Ivacaftor
[3] = cited from earlier work; for median (range) tmax: multiple oral dose of Ivacaftor in combination with Lumacaftor, fed state; for exposure with fat-containing foods relative to fasting state: single dose of Lumacaftor/Ivacaftor
[4] = tested on: CYP3A; settings: in-vitro and clinical studies; cited from earlier work
[5] = cited from earlier work; remark: listed apart in the source
[6] = tested on: plasma proteins, primarily albumin; settings: cited from earlier work
[7] = tested on: colorectal adenocarcinoma (Caco-2) cell system; settings: cited from earlier work
[8] = target: CFTR protein (Homo sapiens, UniProt P13569); settings: major human metabolites of Ivacaftor; cited from earlier work
[9] = Gastro-intestinal tract simulated dissolution test (fasted/FaSSIF and fed/FeSSIF); format: physicochemical; settings: for increase of Ivacaftor dissolution / apparent solubility in FeSSIF condition: FeSSIF vs FaSSIF
Protocol: Gastro-intestinal tract simulated drug dissolution tests were performed by dispersing the blended pharmaceutical combination composition described above in purified water. The dispersion contained 1 mg/mL Lumacaftor and 0.625 mg/mL Ivacaftor (identical mixture to ORKAMBI®). After 30 minutes holding time, simulated gastric fluid (SGF V2) was added to dispersion in order to set-up the pH to 1.6 (fasted state simulation) or FeSSIF buffer to increase the pH to 5.8 (fed state simulation). After 60 minutes holding time, the pH of the fasted state simulated dispersion was set-up to pH=6.5 adding maleic acid solution. FaSSIF solution was also added to the dispersion to ensure the fasted condition in the intestine simulation. In case of fed state simulation FeSSIF solution was added to the dispersion.
The dissolved amount of Lumacaftor and Ivacaftor from the blended pharmaceutical combination composition was measured by RP-HPLC after filtration with 0.1 μm pore size filter at different time points. Dissolution of Ivacaftor and Lumacaftor from the blended and granulated complex formulation was instantaneous, within 5 minutes more than 85% of the Ivacaftor and Lumacaftor dissolved from the pharmaceutical composition of present invention both in fasted and fed state simulated condition. (FIG. 3).

[10] = Redispersibility / DLS particle size of ball milled formulations; format: physicochemical; settings: after ball milling and lyophilization
Protocol: Ivacaftor was ball milled in the presence of the excipients used for the preparation of solid dispersion. Crystalline Lumacaftor was ball milled in the absence of complexation agent (Luviscol VA64) and pharmaceutically acceptable excipient (SDS) and in the presence of them. Ball milling parameters were the following: • Speed: 500 rpm • Milling time: 1 hour • Number of the balls: 25 pcs with 10 mm diameter • Milling vessel's material: […] • Quantity of the milled samples: 100 mg API equivalent mass in 12 mL Milli-Q water
After the milling, the vessel was washed out with 5 mL Milli-Q water. The products were frozen on salted ice and then it was lyophilized using a freeze-drier equipped with −110° C. ice condenser, with a vacuum pump. The material and in-vitro properties of the resulted formulations were compared to the complex Lumacaftor and Ivacaftor formulations.
Particle size of the formulations was measured by DLS technique in reconstituted dispersion/solution.

[11] = Comparative apparent solubility test (100 nm filtration, UV-VIS or RP-HPLC); format: physicochemical; settings: ultrapurified water, thermodynamic from solid, FIG. 17, read-out: comparative apparent solubility of Ivacaftor formulations
Protocol: The apparent solubility was measured by UV-VIS spectroscopy or RP-HPLC at room temperature. The samples were dispersed in ultrapurified water in 1-20 mg/mL active ingredient equivalent concentration range. The resulting solutions were filtered by 100 nm disposable syringe filter. The active ingredient content in the filtrate was measured by UV-Vis spectrophotometry or RP-HPLC and the apparent solubility was calculated. The filtrate may contain particles which could not be filtrated out using 100 nm pore size filter.

[12] = single 150 mg oral dose, healthy volunteers, fed state

CFTR protein, sequence (P13569 whole entry): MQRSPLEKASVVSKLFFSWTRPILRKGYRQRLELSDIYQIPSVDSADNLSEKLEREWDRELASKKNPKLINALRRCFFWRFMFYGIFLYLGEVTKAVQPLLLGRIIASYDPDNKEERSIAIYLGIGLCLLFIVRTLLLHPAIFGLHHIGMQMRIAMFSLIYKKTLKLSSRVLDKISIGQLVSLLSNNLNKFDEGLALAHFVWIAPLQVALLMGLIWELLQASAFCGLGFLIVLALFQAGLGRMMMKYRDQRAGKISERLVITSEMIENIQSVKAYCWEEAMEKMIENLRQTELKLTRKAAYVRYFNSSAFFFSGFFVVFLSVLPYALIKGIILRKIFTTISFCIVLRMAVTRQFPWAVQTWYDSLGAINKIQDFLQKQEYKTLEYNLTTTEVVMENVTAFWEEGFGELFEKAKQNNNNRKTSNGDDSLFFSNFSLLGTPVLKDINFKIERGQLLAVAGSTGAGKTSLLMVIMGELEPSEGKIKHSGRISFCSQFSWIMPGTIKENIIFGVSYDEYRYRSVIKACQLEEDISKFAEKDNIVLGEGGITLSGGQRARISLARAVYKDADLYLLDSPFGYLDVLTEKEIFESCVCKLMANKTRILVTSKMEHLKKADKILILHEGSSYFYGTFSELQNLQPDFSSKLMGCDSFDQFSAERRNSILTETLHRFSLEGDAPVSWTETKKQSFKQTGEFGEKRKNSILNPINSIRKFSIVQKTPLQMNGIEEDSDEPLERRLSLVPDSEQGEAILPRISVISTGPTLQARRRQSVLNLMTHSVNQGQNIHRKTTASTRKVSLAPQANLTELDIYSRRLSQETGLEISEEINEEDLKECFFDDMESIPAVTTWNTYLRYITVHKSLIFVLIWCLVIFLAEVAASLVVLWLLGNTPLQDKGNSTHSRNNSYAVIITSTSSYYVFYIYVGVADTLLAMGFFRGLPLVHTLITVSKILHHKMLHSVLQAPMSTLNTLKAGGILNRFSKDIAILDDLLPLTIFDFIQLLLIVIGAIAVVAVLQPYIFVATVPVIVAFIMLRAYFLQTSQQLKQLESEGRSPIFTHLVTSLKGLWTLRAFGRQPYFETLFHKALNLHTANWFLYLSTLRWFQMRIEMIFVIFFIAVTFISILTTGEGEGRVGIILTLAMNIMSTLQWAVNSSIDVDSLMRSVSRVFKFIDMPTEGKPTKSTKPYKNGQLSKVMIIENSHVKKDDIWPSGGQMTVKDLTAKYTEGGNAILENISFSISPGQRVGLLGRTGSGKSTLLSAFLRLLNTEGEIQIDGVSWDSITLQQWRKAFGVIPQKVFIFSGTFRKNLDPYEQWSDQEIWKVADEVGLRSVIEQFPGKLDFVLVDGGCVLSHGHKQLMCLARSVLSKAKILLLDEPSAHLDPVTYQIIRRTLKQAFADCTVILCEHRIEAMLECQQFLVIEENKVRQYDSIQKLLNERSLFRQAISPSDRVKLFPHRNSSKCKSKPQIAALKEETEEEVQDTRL

## CC(C)(C)c1cc(C(C)(C)C)c(NC(=O)c2c[nH]c3ccccc3c2=O)cc1O [Ivacaftor, N-(2,4-di-tert-butyl-5-hydroxyphenyl)-1,4-dihydro-4oxoquinoline-3-carboxamide]
[1]; water
  solubility in water: < 0.05 microgram/mL
[2]; 150 mg every 12 hours for 7 days, healthy volunteers, fed state
  apparent volume of distribution, mean (±SD): 353 (122) L
[2]; every 12-hour dosing
  accumulation ratio: 2.2 to 2.9
  time to steady-state plasma concentrations: 3 to 5 days
[2]; fed state
  median (range) tmax: approximately 4.0 (3.0; 6.0) hours
[2]; humans, fed vs fasted
  increase of exposure when given with food containing fat (food effect): 2-to 4 fold and 2-4 fold
[2]; oral administration
  fraction of dose eliminated in the feces after metabolic conversion: 87.8%
  urinary excretion as unchanged parent: negligible
[2]; [12]
  AUC, mean (±SD): 10,600 (5260) ng*hr/mL
  Cmax, mean (±SD): 768 (233) ng/mL
  time of peak plasma concentrations (tmax): approximately 4 hours
[2]; single dose
  apparent terminal half-life: approximately 12 hours
[3]
  median (range) tmax: approximately 4.0 hours
  exposure with fat-containing foods relative to fasting state: approximately 3 times
[4]
  main metabolic route: primarily metabolized by CYP3A

## Cc1ccc(NC(=O)C2(c3ccc4c(c3)OC(F)(F)O4)CC2)nc1-c1cccc(C(=O)O)c1 [Lumacaftor]
[1]; water and buffer solutions of pH 1.0 to pH 8.0
  solubility: practically insoluble
[5]; 200 mg every 24 hours for 28 days, CF patients, fed state
  apparent volume of distribution, mean (±SD): 86.0 (69.8) L
[5]; Lumacaftor and its metabolites
  total radioactivity recovered in the urine: 8.6%
[5]; fed state
  median (range) time of the maximum concentration (tmax): approximately 4.0 (2.0, 9.0) hours
[5]; fed vs fasted
  increase of exposure when given with fat containing food: 1.6-to 2.0 fold
[5]; humans
  excreted unchanged in the feces: 51%
[5]; in-vitro and in vivo data
  main metabolic route: mainly metabolized via oxidation and glucuronidation
[5]; of total radioactivity
  recovered in urine as unchanged parent: 0.18%
[5]; patients with CF
  half-life: approximately 26 hours
[6]
  bound to plasma proteins: approximately 99%
[7]
  permeability in Caco-2 cell system: high permeability
[3]
  median (range) tmax: approximately 4.0 hours
  exposure with fat-containing foods relative to fasting state: approximately 2 times

## CC(C)(C)c1cc(C(C)(C)CO)c(O)cc1NC(=O)c1c[nH]c2ccccc2c1=O [M1]
[2]
  share of the total dose eliminated as this metabolite: 22%
[8]
  potency relative to Ivacaftor: approximately one-sixth

## CC(C)(C)c1cc(C(C)(C)C(=O)O)c(O)cc1NC(=O)c1c[nH]c2ccccc2c1=O [M6]
[2]
  share of the total dose eliminated as this metabolite: 43%
[8]
  potency relative to Ivacaftor: less than one-fiftieth

## CC(C)(C)c1cc(C(C)(C)C)c(NC(=O)c2c[nH]c3ccccc3c2=O)cc1O [ball milled crystalline Ivacaftor]
[9]
  increase of Ivacaftor dissolution / apparent solubility in FeSSIF condition: 3 fold

## Cc1ccc(NC(=O)C2(c3ccc4c(c3)OC(F)(F)O4)CC2)nc1-c1cccc(C(=O)O)c1 [ball milled crystalline Lumacaftor]
[10]
  redispersibility in purified water: hardly redispersible

## CC(C)(C)c1cc(C(C)(C)C)c(NC(=O)c2c[nH]c3ccccc3c2=O)cc1O [crystalline Ivacaftor]
[11]
  solubility: < 0.1 mg/mL
[9]
  increase of Ivacaftor dissolution / apparent solubility in FeSSIF condition: 5 fold

## Cc1ccc(NC(=O)C2(c3ccc4c(c3)OC(F)(F)O4)CC2)nc1-c1cccc(C(=O)O)c1 [crystalline Lumacaftor]
[9]; both in FaSSIF and FeSSIF media
  apparent solubility of Lumacaftor: below 10%
